According to ChEMBL document CHEMBL1144544, “Solid-phase synthesis of a combinatorial library of dihydroceramide analogues and its activity in human alveolar epithelial cells” (Bioorg Med Chem, 2007):
Activity calls are given as the source filed them. The calls are words filed in the database; no cut-off is given here.

Tests used:
A549 [1] = assay: Cytotoxicity against human A549 cells after 72 hrs by MTT test; assay type: cell-based; conditions: A549, 72 h
A549 [2] = assay: Cytotoxicity against human A549 cells at 1 mM after 72 hrs by MTT test; assay type: cell-based; conditions: a549, 72 h, 1000 µM
A549 [3] = assay: Cell cycle arrest in human A549 cells by accumulation at S phase after 72 hrs relative to control by flow cytometry; assay type: functional; set-up: concentration or dose not given beside the values
A549 [4] = assay: Cell cycle arrest in human A549 cells by accumulation at G0/G1 phase after 72 hrs relative to control by flow cytometry; assay type: functional; set-up: concentration or dose not given beside the values
A549 [5] = assay: Cell cycle arrest in human A549 cells by accumulation at G2 phase after 72 hrs relative to control by flow cytometry; assay type: functional; set-up: concentration or dose not given beside the values
A549 [6] = assay: Cytotoxicity against human A549 cells upto 1 mM in presence of 10% FBS after 72 hrs by MTT test; assay type: cell-based; conditions: a549, 72 h
A549 [7] = assay: Cell death of human A549 cells assessed as increase in number of apoptotic cells by annexin V and propidium iodide staining by flow cytometry; assay type: functional, cell-based
A549 [8] = assay: Cytotoxicity against human A549 cells in presence of 10% FBS after 72 hrs by MTT test; assay type: cell-based; conditions: a549, 72 h
A549 [9] = assay: Cytotoxicity against human A549 cells upto 1 mM in presence of <=5% FBS after 72 hrs by MTT test; assay type: cell-based; conditions: a549, 72 h

Question: With CCCCCCCc1ccc(C(=O)N[C@@H](CO)C(O)c2ccccc2)cc1 (some centres not stated) as the molecule, how does the IC50 (A549 [1]) read?
Answer: 20 µM

Question: With CC(O)[C@H](CO)NC(=O)c1ccccc1 (some centres not stated) as the molecule, how does the Activity (A549 [2]) read?
Answer: Non-toxic

Question: Which IC50 (A549 [1]) does the source give for O=C(N[C@@H](CO)C(O)c1ccccc1)c1ccc2ccccc2c1 (some centres not stated) here?
Answer: 580 µM

Question: Which results are given for CCCCCCCCC(O)[C@H](CO)NC(=O)CC(C)C (some centres not stated)?
Answer: Activity (A549 [3]): 10.5%; Activity (A549 [4]): 84.5%; Activity (A549 [5]): 5%

Question: How did the Activity (A549 [2]) turn out when CC(O)[C@H](CO)NC(=O)c1ccc2ccccc2c1 (some centres not stated) was run?
Answer: Non-toxic

Question: What does the source list for CCCCCCCCC(O)[C@H](CO)NC(=O)c1ccc2ccccc2c1 (some centres not stated)?
Answer: Activity (A549 [3]): 5.4%; Activity (A549 [4]): 91.2%; Activity (A549 [5]): 3.4%

Question: Which Activity (A549 [2]) does the source give for CC(C)CC(=O)N[C@@H](CO)C(C)O (some centres not stated) here?
Answer: Non-toxic

Question: CCCCCCC(O)[C@H](CO)NC(=O)CC(C)C (some centres not stated) was tested. Which IC50 (A549 [1]) did it give?
Answer: 302 µM

Question: With CCCCCCCc1ccc(C(=O)N[C@@H](CO)C(O)CCCCCC)cc1 (some centres not stated) as the molecule, how does the Activity (A549 [3]) read?
Answer: 8.1%

Question: And the Activity (A549 [4])?
Answer: 86.5%

Question: What about the Activity (A549 [5]) of the same molecule?
Answer: 5.4%

Question: What about the IC50 (A549 [1]) of the same molecule?
Answer: 20 µM

Question: Which IC50 (A549 [1]) does the source give for COc1ccc(CC(=O)N[C@@H](CO)C(C)O)cc1OC (some centres not stated) here?
Answer: 410 µM

Question: How did the Activity (A549 [3]) turn out when CCCCCCCCCCCCC(O)[C@H](CO)NC(=O)CC(C)C (some centres not stated) was run?
Answer: 5.2%

Question: And the Activity (A549 [4])?
Answer: 89.8%

Question: What about the Activity (A549 [5]) of the same molecule?
Answer: 4.4%

Question: For CCCCCCCCCCCCCCC[C@@H](O)[C@H](CO)NC(=O)CCCCC, which Activity (A549 [6]) is on record?
Answer: Not Active

Question: What does the source list for CCCCCCCCCCCCC(O)[C@H](CO)NC(=O)c1ccc2ccccc2c1 (some centres not stated)?
Answer: Activity (A549 [3]): 7.4%; Activity (A549 [4]): 90.4%; Activity (A549 [5]): 2.2%

Question: For CCCCCCCCC(O)[C@H](CO)NC(=O)Cc1ccc(OC)c(OC)c1 (some centres not stated), which Activity (A549 [3]) is on record?
Answer: 10.5%

Question: And the Activity (A549 [4])?
Answer: 84%

Question: And the Activity (A549 [5])?
Answer: 5.5%

Question: Which Activity (A549 [3]) does the source give for CCCCCCCCCCCCCCC[C@H](O)[C@H](CO)NC(=O)c1ccc(CCCCCCC)cc1 here?
Answer: 11.5%

Question: And the Activity (A549 [4])?
Answer: 83.1%

Question: What about the Activity (A549 [5]) of the same molecule?
Answer: 5.4%

Question: And the IC50 (A549 [1])?
Answer: 108 µM

Question: What about the Activity (A549 [7]) of the same molecule?
Answer: Active

Question: CC(O)[C@H](CO)NC(=O)CCC1CCCC1 (some centres not stated) was tested. Which Activity (A549 [2]) did it give?
Answer: Non-toxic

Question: CCCCCCCCCCCCC(O)[C@H](CO)NC(=O)c1ccc(CCCCCCC)cc1 (some centres not stated) was tested. Which Activity (A549 [3]) did it give?
Answer: 7.4%

Question: And the Activity (A549 [4])?
Answer: 88.2%

Question: What about the Activity (A549 [5]) of the same molecule?
Answer: 4.4%

Question: With CCCCCCCCCCCCCCC[C@@H](O)[C@H](CO)NC(=O)c1ccc(CCCCCCC)cc1 as the molecule, how does the Activity (A549 [7]) read?
Answer: inactive

Question: How did the Activity (A549 [3]) turn out when CCCCCCCCCCCCC(O)[C@H](CO)NC(=O)c1ccccc1 (some centres not stated) was run?
Answer: 12.8%

Question: And the Activity (A549 [4])?
Answer: 83%

Question: And the Activity (A549 [5])?
Answer: 4.2%

Question: CCCCCCCCC(O)[C@H](CO)NC(=O)c1ccccc1 (some centres not stated) was tested. Which Activity (A549 [3]) did it give?
Answer: 8.4%

Question: What about the Activity (A549 [4]) of the same molecule?
Answer: 89.6%

Question: And the Activity (A549 [5])?
Answer: 2%

Question: Which IC50 (A549 [1]) does the source give for O=C(CCC1CCCC1)N[C@@H](CO)C(O)c1ccccc1 (some centres not stated) here?
Answer: 597 µM

Question: How did the Activity (A549 [2]) turn out when CC(C)CC(=O)N[C@@H](CO)C(O)c1ccccc1 (some centres not stated) was run?
Answer: Non-toxic

Question: Which IC50 (A549 [1]) does the source give for CCCCCCC(O)[C@H](CO)NC(=O)c1ccccc1 (some centres not stated) here?
Answer: 290 µM

Question: O=C(N[C@@H](CO)C(O)c1ccccc1)c1ccccc1 (some centres not stated) was tested. Which IC50 (A549 [1]) did it give?
Answer: 689 µM

Question: Which Activity (A549 [3]) does the source give for CCCCCCCCCCCCC(O)[C@H](CO)NC(=O)Cc1ccc(OC)c(OC)c1 (some centres not stated) here?
Answer: 5.4%

Question: What about the Activity (A549 [4]) of the same molecule?
Answer: 86.5%

Question: What about the Activity (A549 [5]) of the same molecule?
Answer: 7%

Question: And the IC50 (A549 [1])?
Answer: 20 µM

Question: How did the Activity (A549 [3]) turn out when CCCCCCCCC(O)[C@H](CO)NC(=O)CCC1CCCC1 (some centres not stated) was run?
Answer: 3.4%

Question: And the Activity (A549 [4])?
Answer: 94.4%

Question: What about the Activity (A549 [5]) of the same molecule?
Answer: 2.2%

Question: Which results are given for CCCCCCCCCCCCC/C=C/[C@@H](O)[C@H](CO)NC(=O)CCCCC?
Answer: Activity (A549 [8]): Dose-dependent effect; IC50 (A549 [1]): 35 µM; Activity (A549 [9]): Non-toxic

Question: Which results are given for CCCCCCCCC(O)[C@H](CO)NC(=O)c1ccc(CCCCCCC)cc1 (some centres not stated)?
Answer: Activity (A549 [3]): 3.4%; Activity (A549 [4]): 92.6%; Activity (A549 [5]): 4%; IC50 (A549 [1]): 20 µM; Activity (A549 [7]): Active
